What was measured:
Type in all cases: cell-based
[1] = target: T1, GALR3 single mutant S^266T (Homo sapiens, UniProt O60755, S266T); assay: SRE-luc luciferase assay, GALR3 S266T; conditions: GALR3 S^266T; SRE-luc in HEK293 Gqi cells, ligand 6 h; mean ± S.E.; SEM
T1 construct: expressed in transfected cells; host or cells: HEK293 cells stably expressing Gqi
From the text: (§1) For domain swapping between GALR2 and GALR3, individual cDNA fragments of interest were amplified by polymerase chain reaction (PCR) with Pfu polymerase (ELPIS Biotech, Daejeon, Korea) and two specific primers, one corresponding to the 5' or 3' end of the GALR2 or GALR3 cDNA and the other to the region of overlap between the two receptors. The two resulting fragments, one from GALR2 and the other from GALR3, were subjected to a second round of PCR to generate the chimeric cDNAs. To construct single, double-, triple-, pentuple-, hextuple-, and septuple-mutant receptors, amino acids of GALR3 were substituted for the amino acids at the corresponding positions in GALR2 using PCR-based site-directed mutagenesis. All of the chimeric constructs were cloned into the pcDNA3 expression vector at HindⅢ and XbaⅠ sites. The DNA sequences of the chimeras were verified by automatic sequencing. […] The luciferase activity in 50 μl cell extract was determined using a luciferase assay system according to the standard protocol for the Synergy 2 Multi-Mode Microplate Reader (BioTek, Winooski, VT, USA). […] The concentrations of agonists that induced half-maximal stimulation (EC50) were calculated using the GraphPad PRISM5 software (GraphPad software, Inc., San Diego, CA). […]

GALR3 septuple = target: T2, GALR3 septuple (Homo sapiens, UniProt O60755, A190V/A191F/C272L/G192S/L100F/Y103F/Y107H); assay: cAMP assay (inhibition of forskolin-induced cAMP), GALR3 septuple mutant; conditions: Glosensor-22F cAMP HEK293 cells, agonist 10 min then forskolin 10 μM, mean ± SE, SEM
T2 construct: expressed in transfected cells; host or cells: HEK293 cells stably expressing pGlosensor-22F cAMP plasmid
T2 sequence (O60755 1-368 L100F/Y103F/Y107H/A190V/A191F/G192S/C272L): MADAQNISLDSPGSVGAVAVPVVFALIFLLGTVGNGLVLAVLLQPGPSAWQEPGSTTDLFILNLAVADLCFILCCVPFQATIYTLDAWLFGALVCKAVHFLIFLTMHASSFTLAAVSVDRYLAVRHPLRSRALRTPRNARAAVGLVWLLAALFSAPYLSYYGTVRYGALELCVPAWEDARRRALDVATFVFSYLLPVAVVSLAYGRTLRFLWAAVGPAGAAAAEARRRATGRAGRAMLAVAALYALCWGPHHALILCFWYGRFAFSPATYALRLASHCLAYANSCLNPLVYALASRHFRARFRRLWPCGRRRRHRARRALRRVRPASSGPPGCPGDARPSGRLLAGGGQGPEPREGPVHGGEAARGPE
Protocol: SPX-induced or Qu-SPX-induced cyclic adenosine monophosphate (cAMP) mobilization was measured in HEK293 cells stably expressing the pGlosensor^TM-22F cAMP plasmid (Promega Corp., Madison, WI, USA). The Glosensor-22F cAMP HEK293 cells were seeded on 96-well plates at a density of 2.0 × 10^4 cells/well 24 h before transfection. A mixture including 100 ng expression plasmid and lipofectamine 2000 reagent in diluted Opti-MEM (Gibco) was incubated at room temperature for 20 min. The mixtures were added into each well according to the manufacturer's instructions (Invitrogen, CA, USA). After 48 h, Glosensor cAMP substrates were added to the transfected cells in CO2-independent media. After 2 h, the cells were incubated with a range of agonist concentrations or vehicle for 10 min and then exposed to foskolin (10 μM). Luminescence was measured for up to 30 min using a Microplate Reader (BioTek, Winooski, VT, USA).
Data analysis was performed by non-linear regression with a sigmoidal dose-response curve. The concentrations of agonists that induced half-maximal stimulation (EC50) were calculated using the GraphPad PRISM5 software (GraphPad software, Inc., San Diego, CA). All data are presented as the mean ± standard error (SE) of at least three independent experiments. […]

[2] = target: T3, GALR3 single mutant A^264P (Homo sapiens, UniProt O60755, A264P); assay: SRE-luc luciferase assay, GALR3 A264P; conditions: GALR3 A^264P; SRE-luc in HEK293 Gqi cells, ligand 6 h; mean ± S.E.; SEM
T3 construct: expressed in transfected cells; host or cells: HEK293 cells stably expressing Gqi
T3 sequence (O60755 whole entry A264P): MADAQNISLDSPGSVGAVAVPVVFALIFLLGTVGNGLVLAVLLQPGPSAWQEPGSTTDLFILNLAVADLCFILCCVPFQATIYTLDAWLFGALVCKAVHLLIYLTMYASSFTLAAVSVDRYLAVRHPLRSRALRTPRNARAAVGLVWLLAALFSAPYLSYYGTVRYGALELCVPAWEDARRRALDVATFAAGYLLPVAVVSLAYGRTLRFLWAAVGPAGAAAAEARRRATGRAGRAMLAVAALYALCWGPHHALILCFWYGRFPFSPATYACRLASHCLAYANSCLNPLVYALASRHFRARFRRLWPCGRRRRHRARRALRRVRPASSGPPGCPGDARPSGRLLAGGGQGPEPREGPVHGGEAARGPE
From the text: as §1

T1 sequence (O60755 whole entry S266T): as the sequence (O60755 whole entry A264P) above, with P264A, S266T counted along it

CSCC[C@H](NC(=O)[C@H](C)NC(=O)[C@H](CCC(N)=O)NC(=O)[C@@H]1CCCN1C(=O)[C@@H](NC(=O)[C@H](Cc1c[nH]c2ccccc12)NC(=O)[C@@H](N)CC(N)=O)[C@@H](C)O)C(=O)N[C@@H](CC(C)C)C(=O)N[C@@H](Cc1ccc(O)cc1)C(=O)N[C@@H](CC(C)C)C(=O)N[C@@H](CCCCN)C(=O)NCC(=O)N[C@@H](C)C(=O)N[C@@H](CCC(N)=O)C(N)=O [SPX, reference compound]
EC50 [1]: 38 ± 10.5 nM | EC50 (GALR3 septuple): 77.6 ± 38.7 nM | EC50 [2]: 274 ± 76 nM

Reference: paper PMC7108740, “Exploring the molecular structures that confer ligand selectivity for galanin type II and III receptors” (PLoS ONE, 2020)
